The results in this text go back to patent US20040242566A1, “Dipeptidyl peptidase inhibitors” (Syrrx, Inc., priority 2003, published 2004).

The term half-life denotes the time needed for the level to fall by half in the phase considered. A lower half-life goes with fast loss.

This data set in a line: in vitro. Particulars: rat, rat liver microsomes, pH 7.4. On the technique in general: Liver microsomes are a subcellular fraction often used to study metabolism.
Description: Several compounds were evaluated for stability in rat liver microsomes.
The test compounds (1 p) were incubated at 37° C. in phosphate buffer (50 mM, pH 7.4) containing rat liver microsomes (1 mg/mL protein) and NADPH (Nicotinamide Adenine Dinucleotide Phosphate, reduced form) (4 mM). The incubation mixtures were quenched with trichloroacetic acid (0.3 M) over 0, 5, 15, 30 min time-course. Quenched solutions were centrifuged and supernatants were transferred for LC/MS quantitation. The half life of a test compounds was derived from the compound stability curve over the time course.
On to `N#Cc1ccccc1Cn1c(N2CCCC(N)C2)nc2ccc(F)cc2c1=O` (stereo not drawn) [Example 6, 2-[2-(3-Amino-piperidin-1-yl)-6-fluoro4-oxo4H-quinazolin-3-ylmethyl]-benzonitrile], for which the half-life at 1 p turned out to be 31 min.

With `N#Cc1ccccc1Cn1c(N2CCCC(N)C2)nc2ccccc2c1=O` (stereo not drawn) [Example 1, 2-[2-(3-Amino-piperidin-1-yl)-4-oxo4H-quinazolin-3-ylmethyl]-benzonitrile], the half-life at 1 p turned out to be 2.5 min.

The molecule `COc1cc2nc(N3CCCC(N)C3)n(Cc3ccccc3C#N)c(=O)c2cc1OC` (stereo not drawn) [Example 2, 2-[2-(3-Amino-piperidin-1-yl)-6,7-dimethoxy-4-oxo-4H-quinazolin-3-ylmethyl]-benzonitrile] yielded a half-life at 1 p of 107 min.
